Experimental data reported in patent US5889028A, “Colonic delivery of nicotine to treat inflammatory bowel disease” (priority 1997, dated 1999).
Entries after “also recorded” stand apart in the source; their conditions may differ.

Assays:
[1] = Example 1: nicotine pharmacokinetics after IV, oral and rectal enema administration in healthy volunteers
Description: Intravenous nicotine was prepared using a nicotine base, supplied as the tartrate salt (Fisher Scientific/Eastman Kodak Company, Rochester, N.Y.). Solutions for injection were made up by combining 1.5 mg nicotine base (4.44 mg tartrate salt) in 100 ml of 0.9% sterile normal saline to form a 15 mcg/mL solution. The intravenous solution was filtered through a 0.22 micron filter into a sterile container and under sterile conditions. The solution was then cultured for organisms, assayed for endotoxin, and chemically analyzed prior to infusion to assure stable nicotine concentration. These samples were then be stored in sealed vials until the time of administration.
Thirty paid human volunteers were admitted to the pharmacokinetic study after giving informed consent to a protocol approved by the institutional review board at the Mayo Clinic, Rochester, Minn. The subjects ranged in age from 21-56 and their body weights ranged from 45 to 153 Kg. […]
Each subject underwent 2 investigations (IV and non-IV) of 8 hours duration at least 1 week apart. […] Plasma concentrations of nicotine were determined by gas chromatography/mass spectrometry as described by Baskin et al. (Clin. Chem., 31:76-80 (1991)).
For this study, the maximum plasma nicotine concentration (Cmax) and the time to reach Cmax (Tmax) were defined as the highest measured plasma concentrations and the time of the sample, respectively.

[2] = Example 1: side effects (questionnaire) versus plasma nicotine concentration; assay type: in vivo, human
Description: Intraindividual side effects occurred during each study, as determined by a questionnaire filled out every 30 minutes, closely correlated with plasma nicotine concentrations. However, the threshold above which symptoms appeared varied from individual to individual with the nicotine concentration at which side effects first appeared ranging from 2.4 ng/mL to 9.9 ng/mL (although some subjects had nicotine concentrations of >11 ng/mL without symptoms).

[3] = in vivo
[4] = gum and patch papers; cited from earlier work
[5] = Benowitz et al., cited from earlier work
[6] = nicotine base; cited from earlier work
clinical = settings: in vivo
[7] = cited from earlier work
[8] = systemic cotinine; cited from earlier work

SMILES | bioavailability / tolerability in words [1] | nicotine concentration without symptoms ([2]; some subjects) | side effects observed ([2]; when side effects occurred, variable frequency) | combination with 5-ASA, sulphasalazine, corticosteroids or budesonide [3] | efficacy compared with high dosage transdermal patch [3] | remission (clinical response) [3] | general side effects of nicotine administration [4] | mean bioavailability for the oral dose [5] | CLb ([5]; IV, heavy smokers) | T1/2 ([5]; IV, heavy smokers) | Vdss ([5]; IV, heavy smokers) | absorption through mucous membranes and skin [6] | Fa (clinical) | effect on mucus ([7]; colonic mucus synthesis) | effect on rectal blood flow ([7]; patients with ulcerative colitis) | effect on mucosal production of eicosanoids ([7]; prostaglandin E, 6-keto-PGF1a, leukotrienes) | mucus thickness ([7]; rabbits, high doses, versus controls) | activity relative to nicotine [8]
CN1CCCC1c1cccnc1 (stereo not drawn) [nicotine] | low bioavailability and was well tolerated; also recorded: low or negligible bioavailability and was well tolerated | > 11 ng/mL | nausea, lightheadedness, and diaphoresis | appears to show a synergistic effect | at least as efficacious as high dosage transdermal patch | up to 70% | nausea, vomiting, headaches, insomnia, somnolence, diaphoresis, pre-syncope and tremor | 44 (9%) | 66 (8 L/hr) | 203 (61 min.) | 3.0 (0.7 L/Kg) | readily absorbed through mucous membranes and intact skin | ~20% | appears to increase mucus synthesis to levels observed in healthy subjects | can reduce rectal blood flow to the normal range | appears to reduce mucosal production of eicosanoids | greater mucus thickness as compared to controls | –
CN1C(=O)CC[C@H]1c1cccnc1 [cotinine] | – | – | – | – | – | – | – | – | – | – | – | – | – | – | – | – | – | less active metabolite than nicotine
